Values joined by “and” are separate entries in the source; they are usually repeats but may differ in a detail not shown here. Equal entries are not always repeated. Where two headings read alike, the source gives them in different places. Blank lines part the entries; values can stand above or below the compound they belong to.
Key:
[1] = for DN* AUC∞ / DN*AUC0-24 / DN*AUClast / DN*Cmax: dose normalized
[2] = healthy subjects
clinical [3] = settings: male, human, plasma, oral, 120 mg
clinical [4] = settings: human, oral, 560 mg
clinical [5] = settings: human, in vivo, oral, spread in brackets; for AUC(0-inf): AUCinf
[6] = PCI-45227 in plasma, Day 1, 120 mg Ibrutinib alone, geom. mean
[7] = PCI-45227 in plasma, Day 1, 120 mg Ibrutinib alone, mean
[8] = PCI-45227 in plasma, Day 1, 120 mg Ibrutinib alone, median
[9] = PCI-45227 in plasma, Day 1, 120 mg Ibrutinib alone, not dose normalized, mean
[10] = PCI-45227 in plasma, Day 7, 40 mg Ibrutinib + ketoconazole, geom. mean
[11] = PCI-45227 in plasma, Day 7, 40 mg Ibrutinib + ketoconazole, mean
[12] = PCI-45227 in plasma, Day 7, 40 mg Ibrutinib + ketoconazole, median
[13] = Ibrutinib in plasma, Day 1, 120 mg Ibrutinib alone, geom. mean
[14] = Ibrutinib in plasma, Day 1, 120 mg Ibrutinib alone, mean
[15] = Ibrutinib in plasma, Day 1, 120 mg Ibrutinib alone, median
[16] = Ibrutinib in plasma, Day 1, 120 mg Ibrutinib alone, n=12, geom. mean
[17] = Ibrutinib in plasma, Day 1, 120 mg Ibrutinib alone, n=12, mean
[18] = Ibrutinib in plasma, Day 1, 120 mg Ibrutinib alone, not dose normalized, mean
[19] = Ibrutinib in plasma, Day 7, 40 mg Ibrutinib + ketoconazole, geom. mean
[20] = Ibrutinib in plasma, Day 7, 40 mg Ibrutinib + ketoconazole, mean
[21] = Ibrutinib in plasma, Day 7, 40 mg Ibrutinib + ketoconazole, median
[22] = 560 mg, Ibrutinib 560 mg alone, fasted, n=8
[23] = 560 mg, Ibrutinib 560 mg alone, fed, n=8
[24] = Ibrutinib 140 mg + grapefruit juice, fed, n=8

DN* AUC∞ [1, 6]: 98.2 ng·h/mL
DN*AUC0-24 [1, 6]: 76.6 ng·h/mL
DN*AUClast [1, 6]: 96.4 ng·h/mL
DN*Cmax [1, 6]: 8.81 ng/mL
DN* AUC∞ [1, 7]: 103 ng·h/mL
DN*AUC0-24 [1, 7]: 82.2 ng·h/mL
DN*AUClast [1, 7]: 101 ng·h/mL
DN*Cmax [1, 7]: 9.70 ng/mL
DN* AUC∞ [1, 8]: 101 ng·h/mL
DN*AUC0-24 [1, 8]: 81.3 ng·h/mL
DN*AUClast [1, 8]: 100 ng·h/mL
DN*Cmax [1, 8]: 9.45 ng/mL
AUMC∞ [1, 6]: 4122 h · h · ng/mL
CL/F [1, 6]: 407 L/h
MRT [1, 6]: 14.0 h
T½ term [1, 6]: 11.2 h
tlast [1, 6]: 65.80 h
tmax [1, 6]: 2.25 h
λz [1, 6]: 0.0619 h⁻¹
AUMC∞ [1, 7]: 4297 h · h · ng/mL
CL/F [1, 7]: 428 L/h
MRT [1, 7]: 14.3 h
T½ term [1, 7]: 11.41 h
tlast [1, 7]: 66.7 h and 66.67 h
tmax [1, 7]: 2.42 h
λz [1, 7]: 0.0630 h⁻¹
AUMC∞ [1, 8]: 3979 h · h · ng/mL
CL/F [1, 8]: 395 L/h
MRT [1, 8]: 13.6 h
T½ term [1, 8]: 10.74 h
tlast [1, 8]: 72.00 h
tmax [1, 8]: 2.00 h
λz [1, 8]: 0.0645 h⁻¹
AUC0-24 [1, 9]: 247 ng·h/mL
Cmax [1, 9]: 29.1 ng/mL
AUC0-24 [1, 10]: 53.4 ng·h/mL
AUClast [1, 10]: 82.7 ng·h/mL
AUC∞ [1, 10]: 89.4 ng·h/mL
AUMC∞ [1, 10]: 2216 h · h · ng/mL
CL/F [1, 10]: 448 L/h
Cmax [1, 10]: 3.63 ng/mL
MRT [1, 10]: 24.8 h
T½ term [1, 10]: 17.49 h
tlast [1, 10]: 67.30 h
tmax [1, 10]: 3.77 h
λz [1, 10]: 0.0396 h⁻¹
AUC0-24 [1, 11]: 54.5 ng·h/mL
AUClast [1, 11]: 85.2 ng·h/mL
AUC∞ [1, 11]: 92.2 ng·h/mL
AUMC∞ [1, 11]: 2416 h · h · ng/mL
CL/F [1, 11]: 461 L/h
Cmax [1, 11]: 3.71 ng/mL
MRT [1, 11]: 25.4 h
T½ term [1, 11]: 17.99 h
tlast [1, 11]: 68.01 h
tmax [1, 11]: 3.95 h
λz [1, 11]: 0.0407 h⁻¹
AUC0-24 [1, 12]: 53.8 ng·h/mL
AUClast [1, 12]: 82.7 ng·h/mL
AUC∞ [1, 12]: 89.6 ng·h/mL
AUMC∞ [1, 12]: 2177 h · h · ng/mL
CL/F [1, 12]: 447 L/h
Cmax [1, 12]: 3.74 ng/mL
MRT [1, 12]: 24.8 h
T½ term [1, 12]: 16.61 h
tlast [1, 12]: 72.00 h
tmax [1, 12]: 4.00 h
λz [1, 12]: 0.0417 h⁻¹
Compound: Nc1ncnc2c1c(-c1ccc(Oc3ccccc3)cc1)nn2[C@@H]1CCCN(C(=O)C(O)CO)C1 (some centres unmarked) [PCI-45227]

Compound: C=CC(=O)N1CCC[C@@H](n2nc(-c3ccc(Oc4ccccc4)cc3)c3c(N)ncnc32)C1 [Ibrutinib, 1-((R)-3-(4-amino-3-(4-phenoxyphenyl)-1H-pyrazolo[3,4-d]pyrimidin-1-yl)-piperidin-1-yl)prop-2-en-1-one]
Ibrutinib systemic exposure when dosed concomitantly with rifampin [2]: significantly affected
AUC(0-inf) (clinical [3]): 22.4 ng·h/mL
MRT (clinical [3]): 9.13 h
DN*AUC0-24 [1, 13]: 18.7 ng·h/mL
DN*AUClast [1, 13]: 20.4 ng·h/mL
DN*Cmax [1, 13]: 3.33 ng/mL
DN*AUC0-24 [1, 14]: 21.3 ng·h/mL
DN*AUClast [1, 14]: 23.8 ng·h/mL
DN*Cmax [1, 14]: 3.92 ng/mL
DN*AUC0-24 [1, 15]: 18.5 ng·h/mL
DN*AUClast [1, 15]: 19.2 ng·h/mL
DN*Cmax [1, 15]: 3.57 ng/mL
DN* AUC∞ [1, 16]: 23.7 ng·h/mL
DN* AUC∞ [1, 17]: 28.1 ng·h/mL
tlast [1, 13]: 30.93 h
tlast [1, 14]: 34.00 h
tlast [1, 15]: 24.01 h
AUMC∞ [1, 16]: 576 h · h · ng/mL
MRT [1, 16]: 8.11 h
AUMC∞ [1, 17]: 857 h · h · ng/mL
MRT [1, 17]: 8.93 h
AUMC∞ ([1]; Ibrutinib in plasma, Day 1, 120 mg Ibrutinib alone, n=12, median): 693 h · h · ng/mL
AUC0-24 [1, 18]: 63.8 ng·h/mL
Cmax [1, 18]: 11.8 ng/mL
AUC0-24 [1, 19]: 464 ng·h/mL
AUClast [1, 19]: 488 ng·h/mL
AUC∞ [1, 19]: 491 ng·h/mL
AUMC∞ [1, 19]: 3235 h · h · ng/mL
Cmax [1, 19]: 95.2 ng/mL
MRT [1, 19]: 6.6 h
tlast [1, 19]: 40.51 h
AUC0-24 [1, 20]: 510 ng·h/mL
AUClast [1, 20]: 533 ng·h/mL
AUC∞ [1, 20]: 536 ng·h/mL
AUMC∞ [1, 20]: 3504 h · h · ng/mL
Cmax [1, 20]: 108 ng/mL
MRT [1, 20]: 6.8 h
tlast [1, 20]: 42.68 h
AUClast [1, 21]: 559 ng·h/mL
AUMC∞ [1, 21]: 3635 h · h · ng/mL
tlast [1, 21]: 48.00 h
Ibrutinib systemic exposure when dosed concomitantly with ketoconazole ([1]; healthy subjects): significantly affected
AUC(0-t) (clinical [4]; blood): 259 ng·h/mL
Cmax (clinical [4]; blood): 42 ng/mL
AUC(0-inf) (clinical [4]; in vivo): 397 ng·h/mL
AUC(0-t) (clinical [5]; 560 mg, AUC0-24 h, Ibrutinib 560 mg alone, fasted, n=8): 229 ng·h/mL
AUC(0-t) (clinical [5]; 560 mg, AUC0-24 h, Ibrutinib 560 mg alone, fed, n=7): 544 ng·h/mL
AUC(0-inf) (clinical [5]; [22]): 368 ng·h/mL
AUC(0-inf) (clinical [5]; [23]): 659 ng·h/mL
AUC(0-t) (clinical [5]; 560 mg, AUClast, Ibrutinib 560 mg alone, fasted, n=8): 289 ng·h/mL
AUC(0-t) (clinical [5]; 560 mg, AUClast, Ibrutinib 560 mg alone, fed, n=8): 606 ng·h/mL
Cmax (clinical [5]; [22]): 245 ng/mL
Cmax (clinical [5]; [23]): 128 ng/mL
AUC(0-t) (clinical [5]; AUC0-24 h, Ibrutinib 140 mg + grapefruit juice, fed, n=7): 339 ng·h/mL
AUC(0-inf) (clinical [5]; [24]): 334 ng·h/mL
AUC(0-t) (clinical [5]; AUClast, Ibrutinib 140 mg + grapefruit juice, fed, n=8): 325 ng·h/mL
Cmax (clinical [5]; [24]): 125 ng/mL

Reference: patent US20160022683A1, “COMBINATIONS OF BRUTON'S TYROSINE KINASE INHIBITORS AND CYP3A4 INHIBITORS” (PHARMACYCLICS LLC, priority 2013, published 2016)
